Structures can show the parent of a compound that is named as a salt.
Tests used:
[1] = molecular target: T1, Rat FAAH (Rattus norvegicus, UniProt P97612); assay: Assay Method 2: rat FAAH assay (3H-anandamide hydrolysis in cell homogenate); type: biochemical; conditions: read-out: Assay 2 IC50
T1 construct: expressed in transfected cells; host or cells: SK-N-MC cells stably transfected with rat FAAH cDNA (G418 selection)
T1 sequence (P97612 1-579): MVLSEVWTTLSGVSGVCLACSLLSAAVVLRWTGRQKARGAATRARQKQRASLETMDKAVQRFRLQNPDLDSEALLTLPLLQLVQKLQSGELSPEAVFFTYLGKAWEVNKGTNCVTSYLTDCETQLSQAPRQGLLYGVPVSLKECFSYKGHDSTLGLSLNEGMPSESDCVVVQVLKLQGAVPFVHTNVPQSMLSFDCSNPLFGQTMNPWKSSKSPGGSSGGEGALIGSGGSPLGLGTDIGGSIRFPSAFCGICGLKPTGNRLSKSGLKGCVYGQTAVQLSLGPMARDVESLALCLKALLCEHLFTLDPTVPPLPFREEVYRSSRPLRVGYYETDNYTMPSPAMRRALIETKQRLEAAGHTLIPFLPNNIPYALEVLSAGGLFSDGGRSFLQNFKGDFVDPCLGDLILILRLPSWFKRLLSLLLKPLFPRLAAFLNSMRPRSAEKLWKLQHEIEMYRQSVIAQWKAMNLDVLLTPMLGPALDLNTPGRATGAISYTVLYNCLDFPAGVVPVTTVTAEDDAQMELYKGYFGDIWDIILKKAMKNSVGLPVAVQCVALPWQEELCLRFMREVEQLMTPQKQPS
Experimental: A. Transfection of Cells with Rat FAAH A 10-cm tissue culture dish with a confluent monolayer of SK-N-MC cells was split 2 days (d) prior to transfection. Using sterile technique, the media was removed and the cells were detached from the dish by the addition of trypsin. One fifth of the cells were then placed onto a new 10-cm dish. Cells were grown in a 37° C. incubator with 5% CO2 in Minimal Essential Media Eagle with 10% Fetal Bovine Serum. After 2 d, cells were approximately 80% confluent. These cells were removed from the dish with trypsin and pelleted in a clinical centrifuge. The pellet was re-suspended in 400 μL complete media and transferred to an electroporation cuvette with a 0.4 cm gap between the electrodes. Supercoiled rat FAAH cDNA (1 μg) was added to the cells and mixed. The voltage for the electroporation was set at 0.25 kV, and the capacitance was set at 960 μF. After electroporation, the cells were diluted into complete media (10 mL) and plated onto four 10-cm dishes. Because of the variability in the efficiency of electroporation, four different concentrations of cells were plated. The ratios used were 1:20, 1:10, and 1:5, with the remainder of the cells being added to the fourth dish. The cells were allowed to recover for 24 h before adding the selection media (complete media with 600 μg/mL G418). After 10 d, dishes were analyzed for surviving colonies of cells. Dishes with well-isolated colonies were used. Cells from individual colonies were isolated and tested. […] B. FAAH Assay T84 frozen cell pellets or transfected SK-N-MC cells (contents of 1×15 cm culture dishes) were homogenized in 50 mL of FAAH assay buffer (125 mM Tris, 1 mM EDTA, 0.2% Glycerol, 0.02% Triton X-100, 0.4 mM Hepes, pH 9). […] The reaction mixture was incubated at rt for 1 h. During the incubation, 96-well Multiscreen filter plates (catalog number MAFCNOB50; Millipore, Bedford, Mass., USA) were loaded with 25 of activated charcoal (Multiscreen column loader, catalog number MACL09625, Millipore) and washed once with 100 μL of MeOH. Also during the incubation, 96-well DYNEX MicroLite plates (catalog number NL510410) were loaded with 100 μL of MicroScint40 (catalog number 6013641, Packard Bioscience, Meriden, Conn., USA). After the 1 h incubation, 60 μL of the reaction mixture were transferred to the charcoal plates, which were then assembled on top of the DYNEX plates using Centrifuge Alignment Frames (catalog number MACF09604, Millipore). The unbound labeled ethanolamine was centrifuged through to the bottom plate (5 min at 2000 rpm), which was preloaded with the scintillant, as described above. The plates were sealed and left at rt for 1 h before counting on a Hewlett Packard TopCount. Results for compounds tested in these assays are summarized in Table 1, as an average of results obtained. Compounds were tested in free base or trifluoroacetic acid salt forms. Where activity is shown as greater than (>) a particular value, the value is the solubility limit of the compound in the assay medium or the highest concentration tested in the assay.

[2] = molecular target: T2, FAAH (Homo sapiens, UniProt O00519); assay: Assay Method 1: human FAAH assay (3H-anandamide hydrolysis in cell homogenate); type: biochemical; set-up: expressed in transfected cells; host or cells: SK-N-MC cells stably transfected with human FAAH cDNA (G418 selection); alternatively T84 cell pellets; conditions: read-out: Assay 1 IC50
T2 sequence (O00519 1-579): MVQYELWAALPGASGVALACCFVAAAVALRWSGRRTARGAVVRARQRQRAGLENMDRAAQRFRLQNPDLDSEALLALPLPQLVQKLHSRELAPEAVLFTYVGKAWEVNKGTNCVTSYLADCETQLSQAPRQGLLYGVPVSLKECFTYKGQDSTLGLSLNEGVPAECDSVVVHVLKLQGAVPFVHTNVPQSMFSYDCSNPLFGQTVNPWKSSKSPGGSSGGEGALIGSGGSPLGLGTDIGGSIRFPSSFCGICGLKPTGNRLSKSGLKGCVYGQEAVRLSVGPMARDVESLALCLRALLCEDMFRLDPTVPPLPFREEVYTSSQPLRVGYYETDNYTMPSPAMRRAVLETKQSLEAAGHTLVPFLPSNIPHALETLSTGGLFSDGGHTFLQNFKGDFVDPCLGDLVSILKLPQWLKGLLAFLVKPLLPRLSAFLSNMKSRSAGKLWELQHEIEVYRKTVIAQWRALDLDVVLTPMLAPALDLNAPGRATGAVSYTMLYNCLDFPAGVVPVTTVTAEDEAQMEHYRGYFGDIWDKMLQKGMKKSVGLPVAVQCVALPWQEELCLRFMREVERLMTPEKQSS
Experimental: A. Transfection of Cells with Human FAAH
A 10-cm tissue culture dish with a confluent monolayer of SK-N-MC cells was split 2 days (d) prior to transfection. Using sterile technique, the media was removed and the cells were detached from the dish by the addition of trypsin. One fifth of the cells were then placed onto a new 10-cm dish. Cells were grown in a 37° C. incubator with 5% CO2 in Minimal Essential Media Eagle with 10% Fetal Bovine Serum. After 2 d, cells were approximately 80% confluent. These cells were removed from the dish with trypsin and pelleted in a clinical centrifuge. The pellet was re-suspended in 400 μL complete media and transferred to an electroporation cuvette with a 0.4 cm gap between the electrodes. Supercoiled human FAAH cDNA (1 μg) was added to the cells and mixed. The voltage for the electroporation was set at 0.25 kV, and the capacitance was set at 960 μF. After electroporation, the cells were diluted into complete media (10 mL) and plated onto four 10-cm dishes. Because of the variability in the efficiency of electroporation, four different concentrations of cells were plated. […] The cells were allowed to recover for 24 h before adding the selection media (complete media with 600 μg/mL G418). After 10 d, dishes were analyzed for surviving colonies of cells. Dishes with well-isolated colonies were used. Cells from individual colonies were isolated and tested.
T84 frozen cell pellets or transfected SK-N-MC cells (contents of 1×15 cm culture dishes) were homogenized in 50 mL of FAAH assay buffer (125 mM Tris, 1 mM EDTA, 0.2% Glycerol, 0.02% Triton X-100, 0.4 mM Hepes, pH 9). The assay mixture consisted of 50 μL of the cell homogenate, 10 μL of the test compound, and 40 μL of anandamide [1-^3H-ethanolamine] (^3H-AEA, Perkin-Elmer, 10.3 Ci/mmol), which was added last, for a final tracer concentration of 80 nM. The reaction mixture was incubated at rt for 1 h. During the incubation, 96-well Multiscreen filter plates (catalog number MAFCNOB50; Millipore, Bedford, Mass., USA) were loaded with 25 of activated charcoal (Multiscreen column loader, catalog number MACL09625, Millipore) and washed once with 100 μL of MeOH. Also during the incubation, 96-well DYNEX MicroLite plates (catalog number NL510410) were loaded with 100 μL of MicroScint40 (catalog number 6013641, Packard Bioscience, Meriden, Conn., USA). After the 1 h incubation, 60 μL of the reaction mixture were transferred to the charcoal plates, which were then assembled on top of the DYNEX plates using Centrifuge Alignment Frames (catalog number MACF09604, Millipore). The unbound labeled ethanolamine was centrifuged through to the bottom plate (5 min at 2000 rpm), which was preloaded with the scintillant, as described above. The plates were sealed and left at rt for 1 h before counting on a Hewlett Packard TopCount.
Compounds were tested in free base or trifluoroacetic acid salt forms.

Structure (SMILES)	IC50 [1] [nM]	IC50 [2] [nM]
O=C(Nc1ccc(-n2nccn2)nc1)N1CC2(CCN(Cc3ccc4c(c3)OC(F)(F)O4)CC2)C1 [Example 88, 7-(2,2-Difluoro-benzo[1,3]dioxol-5-ylmethyl)-2,7-diaza-spiro[3.5]nonane-2-carboxylic acid (6-[1,2,3]triazol-2-yl-pyridin-3-yl)-amide]	> 10000	4000
O=C(Nc1cccnc1)N1CCCC2(CCN(Cc3cccc(Oc4ccc(Cl)cc4)c3)C2)C1 (centres unmarked) [Example 16, 2-(3-(4-chlorophenoxy)benzyl)-N-(pyridin-3-yl)-2,7-diazaspiro[4.5]decane-7-carboxamide]	6000	> 10000
O=C(Nc1cnc2[nH]ccc2c1)N1CCC2(CCN(Cc3cccc(Oc4ccc(Cl)cc4)c3)CC2)CC1 [Example 15, 9-[3-(4-Chloro-phenoxy)-benzyl]-3,9-diaza-spiro[5.5]undecane-3-carboxylic acid (1H-pyrrolo[2,3-b]pyridin-5-yl)-amide]	60	40
O=C(Nc1cccnc1)N1CC2(CCN(Cc3cccc(C#Cc4ccccc4)c3)CC2)C1 [Example 105, 7-(3-(phenylethynyl)benzyl)-N-(pyridin-3-yl)-2,7-diazaspiro[3.5]nonane-2-carboxamide]	8000	370
O=C(Nc1cccnc1)N1CC2(CCN(Cc3cccc(Oc4ccc(OC(F)(F)F)cc4)c3)CC2)C1 [Example 125, 7-[3-(4-Trifluoromethoxy-phenoxy)-benzyl]-2,7-diaza-spiro[3.5]nonane-2-carboxylic acid pyridin-3-ylamide]	3000	2600
Cc1nc2ccc(NC(=O)N3CC4(CCN(Cc5cccc(Oc6ccc(Cl)cc6)c5)CC4)C3)cc2s1 [Example 77, 7-(3-(4-chlorophenoxy)benzyl)-N-(2-methylbenzo[d]thiazol-6-yl)-2,7-diazaspiro[3.5]nonane-2-carboxamide, trifluoroacetic acid salt]	> 10000	> 10000

Continued, values first:

IC50 [1] [nM]	IC50 [2] [nM]	Structure (SMILES)
580	2300	O=C(Nc1ccc(-n2nccn2)nc1)N1CCCC2(CCCN(Cc3cccc(Oc4ccc(Cl)cc4)c3)C2)C1 (centres unmarked) [Example 25, N-(6-(2H-1,2,3-triazol-2-yl)pyridin-3-yl)-8-(3-(4-chlorophenoxy)benzyl)-2,8-diazaspiro[5.5]undecane-2-carboxamide]
4000	800	O=C(Nc1cccnc1)N1CC2(CCN(Cc3cccc(Oc4cccc(C(F)(F)F)c4)c3)CC2)C1 [Example 114, N-(pyridin-3-yl)-7-(3-(3-(trifluoromethyl)phenoxy)benzyl)-2,7-diazaspiro[3.5]nonane-2-carboxamide]
> 10000	2500	O=C(Nc1cccnc1)N1CC2(CCN(Cc3ccc4ccccc4c3)CC2)C1 [Example 104, 7-(naphthalen-2-ylmethyl)-N-(pyridin-3-yl)-2,7-diazaspiro[3.5]nonane-2-carboxamide]
120	> 10000	O=C(Nc1cnc2ccccn12)N1CCCC2(CN(Cc3cccc(Oc4ccc(Cl)cc4)c3)C2)C1 [Example 34, 2-(3-(4-chlorophenoxy)benzyl)-N-(imidazo[1,2-a]pyridin-3-yl)-2,6-diazaspiro[3.5]nonane-6-carboxamide]
200	800	O=C(Nc1ccc(-n2nccn2)nc1)N1CCCC2(CN(Cc3cccc(Oc4ccc(Cl)cc4)c3)C2)C1 [Example 27, N-(6-(2H-1,2,3-triazol-2-yl)pyridin-3-yl)-2-(3-(4-chlorophenoxy)benzyl)-2,6-diazaspiro[3.5]nonane-6-carboxamide]
4000	100	O=C(Nc1cccnc1)N1CC2(CCN(Cc3cccc(Oc4ccccc4)c3)CC2)C1 [Example 119, 7-(3-Phenoxy-benzyl)-2,7-diaza-spiro[3.5]nonane-2-carboxylic acid pyridin-3-ylamide]
20	160	O=C(Nc1noc2ccccc12)N1CCC2(CCN(Cc3cccc(Oc4ccc(Cl)cc4)c3)CC2)C1 [Example 92, 8-[3-(4-Chloro-phenoxy)-benzyl]-2,8-diaza-spiro[4.5]decane-2-carboxylic acid benzo[d]isoxazol-3-ylamide, trifluoroacetic acid salt]

— US20120083476A1, “HETEROARYL-SUBSTITUTED SPIROCYCLIC DIAMINE UREA MODULATORS OF FATTY ACID AMIDE HYDROLASE” (Janssen Pharmaceutica NV, priority 2009, published 2012)
